Broadly, the melting point is the temperature of the solid-liquid transition.

Data set [1] deals with rat global ischemia models. The following applies: reported in literature; cited from earlier work.
Data set [2] has as its system global and focal ischemic damage. To be noted: focal and global ischemia models; reported in literature; cited from earlier work.

`N#Cc1ccccc1NCc1nc2ccc(F)cc2c(=O)n1-c1cccnc1Cl` came in with a melting point of 183 to 187 °C. `O=c1c2cc(F)ccc2nc(CNCc2ccccc2F)n1-c1ccccc1Cl`: the melting point came to 140 °C.

Compound `N#Cc1cccnc1NCc1nc2ccc(F)cc2c(=O)n1-c1ccccc1Cl` showed a melting point of 145 to 150 °C. `O=c1c2cc(F)ccc2nc(CNc2ccccc2F)n1-c1cccnc1Cl` registered a melting point of 180 to 182 °C. As to `Cl.O=c1c2sccc2nc(CNc2cccc(CN3CCCC3)c2)n1-c1ccccc1Cl`, the melting point lay within 148 to 151 °C. Still for that read-out and setting: the value for `N#Cc1cccc(NCc2nc3ccc(F)cc3c(=O)n2-c2ccccc2Cl)c1` was 225 to 228 °C; that for `O=c1c2cc(F)ccc2nc(CNc2ncccn2)n1-c1ccccc1Cl` was 182 to 185 °C; that for `Cc1cccc(NCc2nc3ccc(F)cc3c(=O)n2-c2cccnc2Cl)n1` was 190 to 195 °C. Same read-out and setting: the value for `Cl.O=c1c2cc(F)ccc2nc(CNc2ccccn2)n1-c1ccccc1Cl` was 90 to 100 °C; that for `O=c1c2cc(F)ccc2nc(CNc2cccc(CN3CCCC3)c2)n1-c1ccccc1Cl` [Example 12, 3-(2-Chloro-phenyl)-6-fluoro-2-[(3-pyrrolidin-1-ylmethyl-phenylamino)-methyl]-3H-quinazolin-4-one] was 105 to 110 °C; that for `O=c1c2sccc2nc(CNc2ccccc2F)n1-c1ccccc1Cl` [Example 17, 3-(2-Chloro-phenyl)-2-[(2-fluoro-phenylamino)-methyl]-3H-thieno[3,2-d]pyrimidin-4-one] was 175 to 176 °C.

As to `CC1=NN=C(c2ccc(N)cc2)c2cc3c(cc2C1)OCO3` [GKYI 52466], the “neuroprotection in rat global ischemia models” value in data set [1] is “effective neuroprotective agent”. Regarding `NS(=O)(=O)c1cccc2c1c([N+](=O)[O-])cc1nc(O)c(O)nc12` [NBOX, 2,3-dihydroxy-6-nitro-7-sulfamoylbenzo[f-]quinoxaline], the “prevention of global and focal ischemic damage” value in data set [2] is “effective in preventing global and focal ischemic damage”.
